Laboratory results reported in patent US11667652B2, “MCL1 inhibitors” (Gilead Sciences, Inc., priority 2019, dated 2023).
Where two headings read alike, the source gives them in different places. Values belong to the compound of their own block, whether it stands above or below them.

Assays:
SKBR3 cells = assay: SKBR3 Cell Viability Assay; format: cell-based; settings: CellTiter Glo, read-out: MCL1 CV SKBR3 EC50
Outline: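 SKBR3 cells (6,000/well, McCoy's 5A + 10% FBS) were added onto pre-spotted serial compound dilutions and incubated 72 h at 37° C, 5% CO2. Viability was read by CellTiter-Glo luminescence, with % inhibition normalised to DMSO (negative) and 10 μM puromycin (positive).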

MCL1/Bim = MCL1/Bim (Homo sapiens (Human), UniProt Q07820); assay: MCL1/Bim Binding AlphaLISA Assay; settings: recombinant human 6xHis-MCL1 (171-327), biotinylated Bim peptide (51-76)
Outline: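 AlphaLISA with 0.0625 nM human 6×His-MCL1 (171-327) and 0.0625 nM biotinylated Bim (51-76) peptide in 20 mM Hepes pH 7.5, 150 mM NaCl, 0.002% Brij 35, 1 mM DTT, 0.01% BSA. Compound preincubated with MCL1 1 h, Bim added 2 h, then acceptor and donor beads 1 h each; % inhibition versus DMSO and no-protein/peptide controls.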

[1] = Homo sapiens, SK-BR-3, 72 hours

Sequence of MCL1/Bim (Q07820 171-327): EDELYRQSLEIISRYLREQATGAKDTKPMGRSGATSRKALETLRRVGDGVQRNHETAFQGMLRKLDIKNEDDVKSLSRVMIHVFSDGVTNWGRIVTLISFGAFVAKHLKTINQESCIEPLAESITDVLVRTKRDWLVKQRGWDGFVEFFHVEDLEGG

EC50 (SKBR3 cells; [1]): 13.8 nM
IC50 (MCL1/Bim): 0.047 nM
SMILES: COCC(=O)O[C@H]1/C=C/[C@H](OC)[C@@H]2CC[C@H]2CN2C[C@@]3(CCCc4cc(Cl)ccc43)COc3ccc(cc32)C(=O)N=[S@](=O)(NC(=O)c2cn(C)nc2OC)C[C@H]1C [Example 73]

EC50 (SKBR3 cells; [1]): 187 nM
IC50 (MCL1/Bim): 0.06 nM
SMILES: COc1nn(C)cc1C(=O)N[S@@]1(=O)=NC(=O)c2ccc3c(c2)N(C[C@@H]2CC[C@H]2[C@@H](OC)/C=C/[C@H](OCc2ncccn2)[C@H](C)C1)C[C@@]1(CCCc2cc(Cl)ccc21)CO3 [Example 74]

EC50 (SKBR3 cells; [1]): 171 nM
IC50 (MCL1/Bim): 0.217 nM
SMILES: COCC#CCO[C@H]1/C=C/[C@H](OC)[C@@H]2CC[C@H]2CN2C[C@@]3(CCCc4cc(Cl)ccc43)COc3ccc(cc32)C(=O)N=[S@](=O)(NC(=O)c2cn(C)nc2OC)C[C@H]1C [Example 75]

EC50 (SKBR3 cells; [1]): 477 nM
IC50 (MCL1/Bim): 0.905 nM
SMILES: COc1nn(C)cc1C(=O)N[S@@]1(=O)=NC(=O)c2ccc3c(c2)N(C[C@@H]2CC[C@H]2[C@@H](OC)/C=C/[C@H](Oc2ccccn2)[C@H](C)C1)C[C@@]1(CCCc2cc(Cl)ccc21)CO3 [Example 77]

EC50 (SKBR3 cells; [1]): 1060 nM
IC50 (MCL1/Bim): 0.679 nM
SMILES: COc1nn(C)cc1C(=O)N[S@@]1(=O)=NC(=O)c2ccc3c(c2)N(C[C@@H]2CC[C@H]2[C@@H](OC)/C=C/[C@H](Oc2ccncc2)[C@H](C)C1)C[C@@]1(CCCc2cc(Cl)ccc21)CO3 [Example 78]

EC50 (SKBR3 cells; [1]): 27.5 nM
IC50 (MCL1/Bim): 0.253 nM
SMILES: COc1nn(C)cc1C(=O)N[S@@]1(=O)=NC(=O)c2ccc3c(c2)N(C[C@@H]2CC[C@H]2[C@@H](OC)/C=C/[C@H](OCCN2CC(N(C)C)C2)[C@H](C)C1)C[C@@]1(CCCc2cc(Cl)ccc21)CO3 [Example 80]

EC50 (SKBR3 cells; [1]): 6.3 nM
IC50 (MCL1/Bim): 0.011 nM
SMILES: COc1nn(C)cc1C(=O)N[S@@]1(=O)=NC(=O)c2ccc3c(c2)N(C[C@@H]2CC[C@H]2[C@@H](OC)/C=C/[C@H](OCCN2CC(OC)C2)[C@H](C)C1)C[C@@]1(CCCc2cc(Cl)ccc21)CO3 [Example 81]

EC50 (SKBR3 cells; [1]): 53.6 nM
IC50 (MCL1/Bim): 0.041 nM
SMILES: COc1nn(C)cc1C(=O)N[S@@]1(=O)=NC(=O)c2ccc3c(c2)N(C[C@@H]2CC[C@H]2[C@@H](OC)/C=C/[C@H](OCCN2CCN(C)CC2)[C@H](C)C1)C[C@@]1(CCCc2cc(Cl)ccc21)CO3 [Example 82]

EC50 (SKBR3 cells; [1]): 99.1 nM
IC50 (MCL1/Bim): 0.1 nM
SMILES: COc1nn(C)cc1C(=O)N[S@@]1(=O)=NC(=O)c2ccc3c(c2)N(C[C@@H]2CC[C@H]2[C@@H](OC)/C=C/[C@H](OCc2nccn2C)[C@H](C)C1)C[C@@]1(CCCc2cc(Cl)ccc21)CO3 [Example 83]

EC50 (SKBR3 cells; [1]): 90 nM
IC50 (MCL1/Bim): 0.099 nM
SMILES: COc1nn(C)cc1C(=O)N[S@@]1(=O)=NC(=O)c2ccc3c(c2)N(C[C@@H]2CC[C@H]2[C@@H](OC)/C=C/[C@H](OCc2ccncc2)[C@H](C)C1)C[C@@]1(CCCc2cc(Cl)ccc21)CO3 [Example 84]

EC50 (SKBR3 cells; [1]): 164 nM
IC50 (MCL1/Bim): 0.085 nM
SMILES: COc1nn(C)cc1C(=O)N[S@@]1(=O)=NC(=O)c2ccc3c(c2)N(C[C@@H]2CC[C@H]2[C@@H](OC)/C=C/[C@H](OCc2cn(C)cn2)[C@H](C)C1)C[C@@]1(CCCc2cc(Cl)ccc21)CO3 [Example 85]

EC50 (SKBR3 cells; [1]): 1090 nM
IC50 (MCL1/Bim): 0.19 nM
SMILES: COc1nn(C)cc1C(=O)N[S@@]1(=O)=NC(=O)c2ccc3c(c2)N(C[C@@H]2CC[C@H]2[C@@H](OC)/C=C/[C@H](OCCN2CC4(CN(C)C4)C2)[C@H](C)C1)C[C@@]1(CCCc2cc(Cl)ccc21)CO3 [Example 87]

EC50 (SKBR3 cells; 72 hours): 170 nM
IC50 (MCL1/Bim): 0.055 nM
SMILES: COc1nn(C)cc1C(=O)N[S@@]1(=O)=NC(=O)c2ccc3c(c2)N(C[C@@H]2CC[C@H]2[C@@H](OC)/C=C/[C@H](OCCn2ccnc2)[C@H](C)C1)C[C@@]1(CCCc2cc(Cl)ccc21)CO3 [Example 88]

EC50 (SKBR3 cells; [1]): 556 nM
IC50 (MCL1/Bim): 0.457 nM
SMILES: COc1nn(C)cc1C(=O)N[S@@]1(=O)=NC(=O)c2ccc3c(c2)N(C[C@@H]2CC[C@H]2[C@@H](OC)/C=C/[C@@H](OC)[C@H](C)C1)C[C@@]1(CCCc2cc(Cl)ccc21)CO3 [Example 93]

More lines, now with the values behind:

SMILES: COc1nn(C)cc1C(=O)N[S@@]1(=O)=NC(=O)c2ccc3c(c2)N(C[C@@H]2CC[C@H]2[C@@H](OCCN2CCC(OC)CC2)/C=C/C[C@H](C)C1)C[C@@]1(CCCc2cc(Cl)ccc21)CO3 [Example 63]
EC50 (SKBR3 cells; [1]): 25.2 nM
IC50 (MCL1/Bim): 0.034 nM

SMILES: CO[C@H]1/C=C/[C@H](O)[C@H](C)C[S@@](=O)(Nc2ncnc3nn(C)cc23)=NC(=O)c2ccc3c(c2)N(C[C@@H]2CC[C@H]21)C[C@@]1(CCCc2cc(Cl)ccc21)CO3 [Example 66]
EC50 (SKBR3 cells; [1]): 8.6 nM
IC50 (MCL1/Bim): 0.039 nM

SMILES: COc1nn(C)cc1C(=O)N[S@@]1(=O)=NC(=O)c2ccc3c(c2)N(C[C@@H]2CC[C@H]2[C@@H](OC)/C=C/[C@@H](OC)[C@H](C)[C@H]1C)C[C@@]1(CCCc2cc(Cl)ccc21)CO3 [Example 68]
EC50 (SKBR3 cells; 72 hours): 93.8 nM
IC50 (MCL1/Bim): 0.2 nM

SMILES: COc1nn(C)cc1C(=O)N[S@@]1(=O)=NC(=O)c2ccc3c(c2)N(C[C@@H]2CC[C@H]2[C@@H](OC)/C=C/[C@@H](OC)[C@H](C)[C@H]1C)C[C@@]1(CCCc2cc(Cl)ccc21)CO3 [Example 69]
EC50 (SKBR3 cells; 72 hours): 1000 nM
IC50 (MCL1/Bim): 2.07 nM

SMILES: CO[C@H]1/C=C/[C@H](OC)[C@H](C)C[S@@](=O)(NC(=O)c2cn(C)nc2OCCN2CCOCC2)=NC(=O)c2ccc3c(c2)N(C[C@@H]2CC[C@H]21)C[C@@]1(CCCc2cc(Cl)ccc21)CO3 [Example 70]
EC50 (SKBR3 cells; 72 hours): 92.9 nM
IC50 (MCL1/Bim): 0.198 nM

SMILES: CO[C@H]1/C=C/[C@H](OC)CC[S@@](=O)(Nc2ncnc3nn(C)cc23)=NC(=O)c2ccc3c(c2)N(C[C@@H]2CC[C@H]21)C[C@@]1(CCCc2cc(Cl)ccc21)CO3 [Example 71]
EC50 (SKBR3 cells; 72 hours): 192 nM
IC50 (MCL1/Bim): 0.894 nM

SMILES: COc1nn(C)cc1C(=O)N[S@@]1(=O)=NC(=O)c2ccc3c(c2)N(C[C@@H]2CC[C@H]2[C@@H](OC)C#C[C@H](OC)[C@H](C)C1)C[C@@]1(CCCc2cc(Cl)ccc21)CO3 [Example 72]
EC50 (SKBR3 cells; 72 hours): 294 nM
IC50 (MCL1/Bim): 0.309 nM

SMILES: COCCOCCOCCO[C@H]1/C=C/[C@H](OC)[C@@H]2CC[C@H]2CN2C[C@@]3(CCCc4cc(Cl)ccc43)COc3ccc(cc32)C(=O)N=[S@](=O)(NC(=O)c2cn(C)nc2OC)C[C@H]1C [Example 76]
EC50 (SKBR3 cells; [1]): 24.1 nM
IC50 (MCL1/Bim): 0.048 nM

SMILES: COc1nn(C)cc1C(=O)N[S@@]1(=O)=NC(=O)c2ccc3c(c2)N(C[C@@H]2CC[C@H]2[C@@H](OC)/C=C/[C@H](OCCN2CCN(C4COC4)CC2)[C@H](C)C1)C[C@@]1(CCCc2cc(Cl)ccc21)CO3 [Example 79]
EC50 (SKBR3 cells; 72 hours): 42.9 nM
IC50 (MCL1/Bim): 0.062 nM

SMILES: COc1nn(C)cc1C(=O)N[S@@]1(=O)=NC(=O)c2ccc3c(c2)N(C[C@@H]2CC[C@H]2[C@@H](OC)/C=C/[C@H](OCCN2CC4(COC4)C2)[C@H](C)C1)C[C@@]1(CCCc2cc(Cl)ccc21)CO3 [Example 86]
EC50 (SKBR3 cells; [1]): 64.6 nM
IC50 (MCL1/Bim): 0.088 nM

SMILES: COc1nn(C)cc1C(=O)N[S@@]1(=O)=NC(=O)c2ccc3c(c2)N(C[C@@H]2CC[C@H]2[C@@H](OC)/C=C/[C@H](OC(C)=O)[C@H](C)[C@H]1C)C[C@@]1(CCCc2cc(Cl)ccc21)CO3 [Example 91]
EC50 (SKBR3 cells; 72 hours): 88.4 nM
IC50 (MCL1/Bim): 0.177 nM

SMILES: COc1nn(C)cc1C(=O)N[S@@]1(=O)=NC(=O)c2ccc3c(c2)N(C[C@@H]2CC[C@H]2[C@H](OC)/C=C/[C@H](OC(C)=O)[C@H](C)[C@H]1C)C[C@@]1(CCCc2cc(Cl)ccc21)CO3 [Example 92]
EC50 (SKBR3 cells; 72 hours): 796 nM
IC50 (MCL1/Bim): 2.59 nM

SMILES: COc1nn(C)cc1C(=O)N[S@@]1(=O)=NC(=O)c2ccc3c(c2)N(C[C@@H]2CC[C@H]2[C@@](C)(OC)/C=C/C[C@H](C)C1)C[C@@]1(CCCc2cc(Cl)ccc21)CO3 [Example 95]
EC50 (SKBR3 cells; [1]): 3630 nM
IC50 (MCL1/Bim): 4.39 nM

SMILES: COc1nn(C)cc1C(=O)N[S@@]1(=O)=NC(=O)c2ccc3c(c2)N(C[C@@H]2CC[C@H]2[C@](O)(CC(=O)N(C)C)/C=C/C[C@H](C)C1)C[C@@]1(CCCc2cc(Cl)ccc21)CO3 [Example 96]
EC50 (SKBR3 cells; 72 hours): 1410 nM
IC50 (MCL1/Bim): 0.075 nM

SMILES: COc1nn(C)cc1C(=O)N[S@@]1(=O)=NC(=O)c2ccc3c(c2)N(C[C@@H]2CC[C@H]2[C@@](O)(CC(=O)N(C)C)/C=C/C[C@H](C)C1)C[C@@]1(CCCc2cc(Cl)ccc21)CO3 [Example 97]
EC50 (SKBR3 cells; 72 hours): 15.8 nM
IC50 (MCL1/Bim): 0.047 nM

SMILES: COc1nn(C)cc1C(=O)N[S@@]1(=O)=NC(=O)c2ccc3c(c2)N(C[C@@H]2CC[C@H]2[C@@](O)(CC(=O)N2CCOCC2)/C=C/C[C@H](C)C1)C[C@@]1(CCCc2cc(Cl)ccc21)CO3 [Example 98]
EC50 (SKBR3 cells; 72 hours): 73.3 nM
IC50 (MCL1/Bim): 0.031 nM

SMILES: COc1nn(C)cc1C(=O)N[S@@]1(=O)=NC(=O)c2ccc3c(c2)N(C[C@@H]2CC[C@H]2[C@@](O)(CC(=O)N2CCOCC2)/C=C/C[C@H](C)C1)C[C@@]1(CCCc2cc(Cl)ccc21)CO3 [Example 99]
EC50 (SKBR3 cells; 72 hours): 14.2 nM
IC50 (MCL1/Bim): 0.034 nM

SMILES: COc1nn(C)cc1C(=O)N[S@@]1(=O)=NC(=O)c2ccc3c(c2)N(C[C@@H]2CC[C@H]2[C@@](O)(CC(=O)N2CCN(C)CC2)/C=C/C[C@H](C)C1)C[C@@]1(CCCc2cc(Cl)ccc21)CO3 [Example 100]
EC50 (SKBR3 cells; 72 hours): 35.4 nM
IC50 (MCL1/Bim): 0.038 nM
